Ends that are not written are not given here.
Experiments:
[1] = system: PK-1 cells; test: MTT cell-growth assay for evaluation of inhibitory peptides; assay type: cell-based, Human; settings: FIG. 4
[2] = system: PK-1 cells; test: Flow cytometric analysis of sub-G1 fraction (propidium iodide); assay type: cell-based, Human; settings: 40 μM, 12 hr, FIG. 7
Experimental: PK-1 cell was maintained as described before (RPMI with 10% FBS). The cells were incubated with or without negative control (40 μM as a final concentration) or C1958VIVIT (10, 20, and 40 μM) peptide for 12 hr. After the incubation, cells were detached by trypsin and collected to tubes and washed with PBS for 3 times. Then the cells were fixed with 67% ethanol for 30 min at room temperature (RT), washed with PBS once, and treated with RNase (2 mg/ml in PBS) for 30 min at RT. Finally the cell nuclei were stained with propidium iodide (PI) for 30 min at RT. Flow cytometric analysis was done with FACS calibur (BD).

[3] = set-up: species or system mice (BALB/cA Jcl-nu); settings: mouse, in vivo, 9 mg/kg/day
Experimental: In vivo experiments were performed in our animal facility in accordance with institutional guidelines. A 0.1-ml aliquot of suspended PK-1 cells (5×10^6 cells) was injected subcutaneously into the flanks of six-week-old female athymic mice (BALB/cA Jcl-nu). Tumor volumes were determined using the formula: 0.52×(larger diameter)×(smaller diameter)×(depth). When the xenograft reached to 100 mm^3 in size, animals were randomly divided into two or three groups and received intratumoral or intravenous injection of 180 μg of 11R-C1958VIVIT, 11R-VEET, or PBS for 21 consecutive days. Tumor growth was assessed by calculating the ratio of tumor volume on the indicated day to the volume calculated on the initiation of treatment.

Question: With “RRRRRRRRRRR-GGG-KHLDVPDIIITPPTPT [11R-C1958]” as the substance, how does the “inhibition of growth of the cells (MTT assay)” value ([1]; peptide 25 μM) read?
Answer: The value was “neither 11R—C1958 (25 μM) nor 11R-VEET (40 μM) peptides, significantly inhibited the growth of the cells”.

Question: Which results are given for “RRRRRRRRRRR-GGG-MAGPPHIVEETGPHVI (RRRRRRRRRRRGGGMAGPPHIVEETGPHVI; Artificially synthesized peptide for inhibition of the interaction of C1958 and PPP3CA as control) [11R-VEET, 10, reference compound]”?
Answer: inhibition of growth of the cells (MTT assay) ([1]; peptide 40 μM): neither 11R—C1958 (25 μM) nor 11R-VEET (40 μM) peptides, significantly inhibited the growth of the cells; sub-G1 fraction of the treated cells [2]: did not affect

Question: For “RRRRRRRRRRRGGGKHLDVPVIVITPPTPT [11R-C1958VIVIT, RRRRRRRRRRR-GGG-KHLDVPVIVITPPTPT]”, which “apparent negative effects on mice conditions” value [3] is on record?
Answer: The value was “nor apparent negative effects on mice conditions were observed”.
